pIC50: −log10 of the molar value.
Assays:
HepG2 [1] = experiment: Cytotoxicity against human HepG2 cells assessed as inhibition of cell proliferation after 24 hrs by SRB assay; assay type: functional, cell-based; details: HepG2, 24 h
MCF7 [2] = experiment: Cytotoxicity against human MCF7 cells assessed as inhibition of cell proliferation after 24 hrs by SRB assay; assay type: functional, cell-based; details: MCF7, 24 h
HepG2 [3] = experiment: Anticancer activity against human HepG2 cells assessed as viable cells after 48 hrs at 5 uM by SRB assay relative to control; assay type: functional; details: HepG2, 48 h, read-out: Activity
HepG2 [4] = experiment: Anticancer activity against human HepG2 cells assessed as viable cells after 48 hrs at 12.5 uM by SRB assay relative to control; assay type: functional; details: HepG2, 48 h, read-out: Activity
HepG2 [5] = experiment: Anticancer activity against human HepG2 cells assessed as viable cells after 48 hrs at 25 uM by SRB assay relative to control; assay type: functional; details: HepG2, 48 h, read-out: Activity
HepG2 [6] = experiment: Anticancer activity against human HepG2 cells assessed as viable cells after 48 hrs at 40 uM by SRB assay relative to control; assay type: functional; details: HepG2, 48 h, read-out: Activity
HepG2 [7] = experiment: Anticancer activity against 4 Gy gamma-irradiated human HepG2 cells assessed as viable cells after 48 hrs at 5 uM by SRB assay (reference value: 21.2%); assay type: functional; details: HepG2, light or radiation study, read-out: Activity
HepG2 [8] = experiment: Anticancer activity against 4 Gy gamma-irradiated human HepG2 cells assessed as viable cells after 48 hrs at 12.5 uM by SRB assay (reference value: 21.2%); assay type: functional; details: HepG2, light or radiation study, read-out: Activity
HepG2 [9] = experiment: Anticancer activity against 4 Gy gamma-irradiated human HepG2 cells assessed as viable cells after 48 hrs at 25 uM by SRB assay (reference value: 21.2%); assay type: functional; details: HepG2, light or radiation study, read-out: Activity
HepG2 [10] = experiment: Anticancer activity against 4 Gy gamma-irradiated human HepG2 cells assessed as viable cells after 48 hrs at 40 uM by SRB assay (reference value: 21.2%); assay type: functional; details: HepG2, light or radiation study, read-out: Activity
MCF7 [11] = experiment: Anticancer activity against human MCF7 cells assessed as viable cells after 48 hrs at 5 uM by SRB assay relative to control; assay type: functional; details: MCF7, 48 h, read-out: Activity
MCF7 [12] = experiment: Anticancer activity against human MCF7 cells assessed as viable cells after 48 hrs at 12.5 uM by SRB assay relative to control; assay type: functional; details: MCF7, 48 h, read-out: Activity
MCF7 [13] = experiment: Anticancer activity against human MCF7 cells assessed as viable cells after 48 hrs at 25 uM by SRB assay relative to control; assay type: functional; details: MCF7, 48 h, read-out: Activity
MCF7 [14] = experiment: Anticancer activity against human MCF7 cells assessed as viable cells after 48 hrs at 40 uM by SRB assay relative to control; assay type: functional; details: MCF7, 48 h, read-out: Activity
MCF7 [15] = experiment: Anticancer activity against 4 Gy gamma-irradiated human MCF7 cells assessed as viable cells after 48 hrs at 5 uM by SRB assay (reference value: 7.3%); assay type: functional; details: MCF7, light or radiation study, read-out: Activity
MCF7 [16] = experiment: Anticancer activity against 4 Gy gamma-irradiated human MCF7 cells assessed as viable cells after 48 hrs at 12.5 uM by SRB assay (reference value: 7.3%); assay type: functional; details: MCF7, light or radiation study, read-out: Activity
MCF7 [17] = experiment: Anticancer activity against 4 Gy gamma-irradiated human MCF7 cells assessed as viable cells after 48 hrs at 25 uM by SRB assay (reference value: 7.3%); assay type: functional; details: MCF7, light or radiation study, read-out: Activity
MCF7 [18] = experiment: Anticancer activity against 4 Gy gamma-irradiated human MCF7 cells assessed as viable cells after 48 hrs at 40 uM by SRB assay (reference value: 7.3%); assay type: functional; details: MCF7, light or radiation study, read-out: Activity
HepG2 [19] = experiment: Anticancer activity against 4 Gy gamma-irradiated human HepG2 cells assessed as viable cells after 48 hrs at 5 uM by SRB assay (reference value: 18.73%); assay type: functional; details: HepG2, light or radiation study, read-out: Activity
HepG2 [20] = experiment: Anticancer activity against 4 Gy gamma-irradiated human HepG2 cells assessed as viable cells after 48 hrs at 12.5 uM by SRB assay (reference value: 18.73%); assay type: functional; details: HepG2, light or radiation study, read-out: Activity
HepG2 [21] = experiment: Anticancer activity against 4 Gy gamma-irradiated human HepG2 cells assessed as viable cells after 48 hrs at 25 uM by SRB assay (reference value: 18.73%); assay type: functional; details: HepG2, light or radiation study, read-out: Activity
HepG2 [22] = experiment: Anticancer activity against 4 Gy gamma-irradiated human HepG2 cells assessed as viable cells after 48 hrs at 40 uM by SRB assay (reference value: 18.73%); assay type: functional; details: HepG2, light or radiation study, read-out: Activity

Compound	pIC50 (HepG2 [1])	pIC50 (MCF7 [2])	also measured
Nc1nc(=O)[nH]c2c1c(-c1ccccc1)cn2-c1ccc(S(=O)(=O)Nc2nccs2)cc1	5.46	5.08	viability at 5 µM (HepG2 [3]): 22.3%; viability at 12.5 µM (HepG2 [4]): 47.7%; viability at 25 µM (HepG2 [5]): 63.9%; viability at 40 µM (HepG2 [6]): 63.6%; viability at 5 µM (HepG2 [7]): 61.7%; viability at 12.5 µM (HepG2 [8]): 69.2%; viability at 25 µM (HepG2 [9]): 78.3%; viability at 40 µM (HepG2 [10]): 81.7%
Cc1nc2c(c(-c3ccccc3)cn2-c2ccc(S(=O)(=O)Nc3ccccn3)cc2)c(=O)[nH]1	5.50	5.29	
Nc1nc(=O)[nH]c2c1c(-c1ccccc1)cn2-c1ccc(S(=O)(=O)Nc2ccccn2)cc1	5.37	5.41	
Nc1nc(=S)[nH]c2c1c(-c1ccccc1)cn2-c1ccc(S(=O)(=O)Nc2nccs2)cc1	5.39	5.51	
Nc1nc(=S)[nH]c2c1c(-c1ccccc1)cn2-c1ccc(S(=O)(=O)Nc2ccccn2)cc1	5.39	5.42	
O=C(CNc1ccc(S(=O)(=O)Nc2nccs2)cc1)c1ccccc1	5.17	5.05	
O=C(CNc1ccc(S(=O)(=O)Nc2ccccn2)cc1)c1ccccc1	5.17	5.12	
N#Cc1c(-c2ccccc2)cn(-c2ccc(S(=O)(=O)Nc3nccs3)cc2)c1N	5.27	5.46	viability at 5 µM (MCF7 [11]): 11.3%; viability at 12.5 µM (MCF7 [12]): 42.5%; viability at 25 µM (MCF7 [13]): 71.3%; viability at 40 µM (MCF7 [14]): 72%; viability at 5 µM (MCF7 [15]): 41.5%; viability at 12.5 µM (MCF7 [16]): 65.3%; viability at 25 µM (MCF7 [17]): 82.3%; viability at 40 µM (MCF7 [18]): 85.8%
N#Cc1c(-c2ccccc2)cn(-c2ccc(S(=O)(=O)Nc3ccccn3)cc2)c1N	5.28	5.34	
O=c1[nH]cnc2c1c(-c1ccccc1)cn2-c1ccc(S(=O)(=O)Nc2nccs2)cc1	5.28	5.21	
O=c1[nH]cnc2c1c(-c1ccccc1)cn2-c1ccc(S(=O)(=O)Nc2ccccn2)cc1	5.33	5.27	
Nc1ncnc2c1c(-c1ccccc1)cn2-c1ccc(S(=O)(=O)Nc2nccs2)cc1	5.37	5.19	
Nc1ncnc2c1c(-c1ccccc1)cn2-c1ccc(S(=O)(=O)Nc2ccccn2)cc1	5.39	5.20	
N#Cc1c(-c2ccccc2)cn(-c2ccc(S(=O)(=O)Nc3nccs3)cc2)c1NC(N)=O	5.40	5.09	
N#Cc1c(-c2ccccc2)cn(-c2ccc(S(=O)(=O)Nc3ccccn3)cc2)c1NC(N)=O	5.39	5.13	
CC(=O)Nc1c(C#N)c(-c2ccccc2)cn1-c1ccc(S(=O)(=O)Nc2nccs2)cc1	5.40	5.14	
CC(=O)Nc1c(C#N)c(-c2ccccc2)cn1-c1ccc(S(=O)(=O)Nc2ccccn2)cc1	5.46	4.93	viability at 5 µM (HepG2 [3]): 30.3%; viability at 12.5 µM (HepG2 [4]): 53.5%; viability at 25 µM (HepG2 [5]): 62.7%; viability at 40 µM (HepG2 [6]): 69.9%; viability at 5 µM (HepG2 [7]): 57.4%; viability at 12.5 µM (HepG2 [8]): 69.5%; viability at 25 µM (HepG2 [9]): 82.5%; viability at 40 µM (HepG2 [10]): 82.5%
N#Cc1c(-c2ccccc2)cn(-c2ccc(S(=O)(=O)Nc3nccs3)cc2)c1NC(=O)CCC(=O)O	5.43	5.04	viability at 5 µM (HepG2 [3]): 25%; viability at 12.5 µM (HepG2 [4]): 39.6%; viability at 25 µM (HepG2 [5]): 36%; viability at 40 µM (HepG2 [6]): 49.6%; viability at 5 µM (HepG2 [7]): 60.6%; viability at 12.5 µM (HepG2 [8]): 72.6%; viability at 25 µM (HepG2 [9]): 71.8%; viability at 40 µM (HepG2 [10]): 79.4%
N#Cc1c(-c2ccccc2)cn(-c2ccc(S(=O)(=O)Nc3ccccn3)cc2)c1NC(=O)CCC(=O)O	5.43	5.08	viability at 5 µM (HepG2 [3]): 15.1%; viability at 12.5 µM (HepG2 [4]): 60.3%; viability at 25 µM (HepG2 [5]): 72%; viability at 40 µM (HepG2 [6]): 78%; viability at 5 µM (HepG2 [19]): 81.4%; viability at 12.5 µM (HepG2 [20]): 84.4%; viability at 25 µM (HepG2 [21]): 89.2%; viability at 40 µM (HepG2 [22]): 87.7%
N#Cc1c(-c2ccccc2)cn(-c2ccc(S(=O)(=O)Nc3nccs3)cc2)c1N1C(=O)CCC1=O	5.34	5.17	
N#Cc1c(-c2ccccc2)cn(-c2ccc(S(=O)(=O)Nc3ccccn3)cc2)c1N1C(=O)CCC1=O	5.27	5.00	
Cc1nc2c(c(-c3ccccc3)cn2-c2ccc(S(=O)(=O)Nc3nccs3)cc2)c(=O)[nH]1	5.47	5.24	
COc1cccc2c1C(=O)c1c(O)c3c(c(O)c1C2=O)C[C@@](O)(C(=O)CO)C[C@@H]3O[C@H]1C[C@H](N)[C@H](O)[C@H](C)O1 [DOXORUBICIN]	5.28		

Source: ChEMBL document CHEMBL1268828, “Synthesis of novel pyrrole and pyrrolo[2,3-d]pyrimidine derivatives bearing sulfonamide moiety for evaluation as anticancer and radiosensitizing agents” (Bioorg Med Chem Lett, 2010)
